Measured values taken from patent publication US8486996B2, “Aroylfuranes and aroylthiophenes” (Basilea Pharmaceutica AG, priority 2006, dated 2013).
Where two headings read alike, the source gives them in different places.

Columns and labels:
Type in all cases: cell-based
[1] = Hoechst 33342 nuclear staining (48 h read-out)
Description: (§1) A) Hoechst 33342 Nuclear Staining
(§2) This assay is performed in 96 well tissue culture plates. Appropriate number of cells (adherent cells: 3-5*10^3, suspension cells: 8-10*10^3) are being seeded out in 80 μl complete medium. Adherent cells are incubated for 24 h for proper spreading out before addition of test compounds while suspension cells are immediately treated with test compounds after seeding out. The test compounds are added in 20 μl complete medium containing max 5% DMSO. The final compound concentrations in the assays are in the range of 0.001 μM-10 μM. After 24 h or 48 h incubation at culture conditions, 10 μl medium containing Hoechst 33342 dye (Sigma B-2261) at 2-5 μg/ml are added to each well. The assay plates are then further incubated for 30 minutes and subsequently analyzed with a standard inverted fluorescence microscope.
(§3) The readout allows the determination of the fraction of apoptotic nuclei as well as other morphological criteria specific for apoptosis as a function of the treatment. The scores A, B, C and D are explained at the end of the Table.

tumor cells [2] = test: Hoechst 33342 nuclear staining (48 h read-out)
Description: as §1, §2, §3

[3] = Mitochondrial membrane potential, JC-1 (read-out 48 h); conditions: PBL, JC-1, 48 h
Description: (§4) D) Mitochondrial Membrane Potential
as §2, with “The final compound concentrations in the assays are in the range of 0.001 μM-10 μM.” left out, “JC-1 (Molecular Probes, T-3168)” for “Hoechst 33342 dye (Sigma B-2261)”, “microscope by using the FITC and TRITC filters.” for “microscope.”
(§5) The readout allows the determination of the fraction of cells which show a dissipation of the mitochondrial membrane potential strongly indicating an apoptotic cell death as a function of the treatment. The scores A, B, C and D are explained at the end of the Table.

tumor cells [4] = test: as above; conditions: JC-1, 48 h
Description: as §4
as §2, with “The final compound concentrations in the assays are in the range of 0.001 μM-10 μM.” left out, “JC-1 (Molecular Probes, T-3168)” for “Hoechst 33342 dye (Sigma B-2261)”, “microscope by using the FITC and TRITC filters.” for “microscope.”
as §5

[5] = MTS proliferation assay (72 h read-out); conditions: MRC5 cells
Description: (§6) B) MTS Proliferation Assay
(§7) The assay is performed in 96 well tissue culture plates. The cells (range: 1.5*10^3-10^4) are seeded out in 80 μl complete medium 24 h prior to compound treatment. The test compounds are added in 20 μl complete medium containing max 5% DMSO. The final compound concentrations in the assays are in the range of 0.001 μM-10 μM. The assay plates are incubated for 72 h at culture conditions. The MTS reagent is prepared according to the manufacturer's protocol (Promega G1111). 20 μl MTS reagent are added to each well; the assay plates are quickly spun and incubated for another 3 h at culture conditions. Subsequently, the plates are shortly shaked and absorption measured with a microplate-reader at 492 nm. The scores A, B, C and D are explained at the end of the Table.

tumor cells [6] = test: MTS proliferation assay (72 h read-out)
Description: as §6, §7

[7] = Homo sapiens, MRC5 cells, read-out: Hoechst 33342 nuclear staining EC50, MRC5
[8] = PBL, read-out: Hoechst 33342 nuclear staining EC50, PBL
[9] = Homo sapiens, HeLa cells, read-out: Hoechst 33342 nuclear staining EC50, HeLa
[10] = Homo sapiens, Jurkat cells, read-out: Hoechst 33342 nuclear staining EC50, Jurkat
[11] = Jily cells, read-out: Hoechst 33342 nuclear staining EC50, Jily
[12] = Homo sapiens, HeLa cells, read-out: Mitochondrial membrane potential (read-out 48 h) HeLa
[13] = Homo sapiens, Jurkat cells, read-out: Mitochondrial membrane potential (read-out 48 h) Jurkat
[14] = Homo sapiens, MCF7 cells, read-out: Mitochondrial membrane potential (read-out 48 h) MCF7
[15] = Jily cells, read-out: Mitochondrial membrane potential (read-out 48 h) Jily
[16] = Homo sapiens, HT-1080, HT1080 cells, read-out: MTS proliferation assay IC50, HT1080
[17] = Homo sapiens, HeLa cells, read-out: MTS proliferation assay IC50, HeLa
[18] = Jily cells, read-out: MTS proliferation assay IC50, Jily
[19] = MRC5 cells, read-out: Hoechst 33342 nuclear staining EC50, MRC5
[20] = HeLa cells, read-out: Hoechst 33342 nuclear staining EC50, HeLa
[21] = Jurkat cells, read-out: Hoechst 33342 nuclear staining EC50, Jurkat
[22] = HeLa cells, read-out: Mitochondrial membrane potential (read-out 48 h) HeLa
[23] = Jurkat cells, read-out: Mitochondrial membrane potential (read-out 48 h) Jurkat
[24] = MCF7 cells, read-out: Mitochondrial membrane potential (read-out 48 h) MCF7
[25] = HT1080 cells, read-out: MTS proliferation assay IC50, HT1080
[26] = HeLa cells, read-out: MTS proliferation assay IC50, HeLa
[27] = Jurkat cells, read-out: MTS proliferation assay IC50, Jurkat

Row | Compound | EC50 [1, 8] [nM] | EC50 (tumor cells [2]; [11]) [nM] | EC50 [3] [nM] | EC50 (tumor cells [4]; [15]) [nM] | IC50 (tumor cells [6]; [18]) [nM] | EC50 [1, 19] [nM] | EC50 (tumor cells [2]; [20]) [nM] | EC50 (tumor cells [2]; [21]) [nM] | EC50 (tumor cells [4]; [22]) [nM] | EC50 (tumor cells [4]; [23]) [nM] | EC50 (tumor cells [4]; [24]) [nM] | IC50 (tumor cells [6]; [25]) [nM] | IC50 (tumor cells [6]; [26]) [nM] | IC50 (tumor cells [6]; [27]) [nM] | other results
1 | Nc1c(C(=O)c2ccccc2OCc2ccccc2)oc2ccc(Cl)cc12 [Example 1, 3-Amino-5-chloro-2-(2-benzyloxybenzoyl)-benzofuran] | > 1000 | > 1000 | > 1000 | > 1000 | 100 to 1000 | – | – | – | – | – | – | – | – | – | EC50 [1, 7]: > 1000 nM; EC50 (tumor cells [2]; [9]): > 1000 nM; EC50 (tumor cells [2]; [10]): > 1000 nM; EC50 (tumor cells [4]; [12]): > 1000 nM; EC50 (tumor cells [4]; [13]): 100 to 1000 nM; EC50 (tumor cells [4]; [14]): > 1000 nM; IC50 ([5]; Homo sapiens): > 1000 nM; IC50 (tumor cells [6]; [16]): > 1000 nM; IC50 (tumor cells [6]; [17]): > 1000 nM
2 | CCOc1ccccc1C(=O)c1oc2c(C)cccc2c1N [Example 5, 3-Amino-7-methyl-2-(2-ethoxybenzoyl)-benzofuran] | > 1000 | > 1000 | > 1000 | > 1000 | 100 to 1000 | – | – | – | – | – | – | – | – | – | EC50 [1, 7]: > 1000 nM; EC50 (tumor cells [2]; [9]): > 1000 nM; EC50 (tumor cells [2]; [10]): 100 to 1000 nM; EC50 (tumor cells [4]; [12]): > 1000 nM; EC50 (tumor cells [4]; [13]): 100 to 1000 nM; EC50 (tumor cells [4]; [14]): > 1000 nM; IC50 ([5]; Homo sapiens): > 1000 nM; IC50 (tumor cells [6]; [16]): > 1000 nM; IC50 (tumor cells [6]; [17]): > 1000 nM; IC50 (tumor cells [6]; Homo sapiens, Jurkat cells, read-out: MTS proliferation assay IC50, Jurkat): 100 to 1000 nM
3 | Nc1c(C(=O)c2ccccc2OCCN2CCOCC2)oc2ccc(Cl)cc12 [Example 10] | > 1000 | > 1000 | > 1000 | > 1000 | > 1000 | > 1000 | > 1000 | > 1000 | > 1000 | > 1000 | > 1000 | > 1000 | > 1000 | > 1000 | IC50 [5]: > 1000 nM
4 | COc1ccc2oc(C(=O)c3cc(F)ccc3N3CCCCC3)cc2c1 [Example 95] | – | – | – | – | 10 to 100 | – | – | – | – | – | – | 10 to 100 | 10 to 100 | 10 to 100 | IC50 [5]: 10 to 100 nM
5 | CCOc1ccc2oc(C(=O)c3cc(F)ccc3N3CC=CCC3)cc2c1 [Example 111] | > 1000 | < 10 | > 1000 | < 10 | – | 10 to 100 | 10 to 100 | < 10 | 10 to 100 | < 10 | 10 to 100 | – | – | – | –
6 | O=C(c1cc2cc(O)ccc2o1)c1cc(F)ccc1N1CC=CCC1 [Example 112] | > 1000 | 10 to 100 | > 1000 | 10 to 100 | – | 10 to 100 | 10 to 100 | 10 to 100 | 10 to 100 | 10 to 100 | 10 to 100 | – | – | – | –
7 | Nc1c(C(=O)c2ccccc2N2CCOCC2)sc2ncc([N+](=O)[O-])cc12 [Example 131] | – | – | – | > 1000 | > 1000 | > 1000 | > 1000 | > 1000 | > 1000 | > 1000 | > 1000 | > 1000 | > 1000 | > 1000 | –
8 | Nc1cnc2sc(C(=O)c3ccccc3N3CCOCC3)c(N)c2c1 [Example 132] | – | – | – | > 1000 | 100 to 1000 | > 1000 | > 1000 | 100 to 1000 | > 1000 | > 1000 | > 1000 | > 1000 | > 1000 | 100 to 1000 | –
9 | CCCOc1ccccc1C(=O)c1sc2nc(C)c(C)cc2c1N [Example 133] | – | – | – | 10 to 100 | 10 to 100 | 10 to 100 | 10 to 100 | 10 to 100 | 10 to 100 | 10 to 100 | > 1000 | 10 to 100 | 10 to 100 | 10 to 100 | –
10 | Cc1cc2c(N)c(C(=O)c3ccccc3N3CCOCC3)sc2nc1C [Example 134] | – | – | – | 10 to 100 | 10 to 100 | 100 to 1000 | 100 to 1000 | 10 to 100 | 10 to 100 | 10 to 100 | > 1000 | 10 to 100 | 100 to 1000 | 10 to 100 | –
11 | Cc1cc2c(N)c(C(=O)c3ccccc3N3CC=CCC3)sc2nc1C [Example 135] | – | – | – | 10 to 100 | 10 to 100 | 100 to 1000 | 100 to 1000 | 10 to 100 | > 1000 | 10 to 100 | > 1000 | 10 to 100 | 100 to 1000 | 10 to 100 | –
12 | N#Cc1cnc2sc(C(=O)c3cc(F)ccc3N3CCOCC3)c(N)c2c1 [Example 136] | – | – | – | 100 to 1000 | 100 to 1000 | > 1000 | > 1000 | 100 to 1000 | > 1000 | 100 to 1000 | > 1000 | 100 to 1000 | 100 to 1000 | 100 to 1000 | –
